The source of these data is patent publication US20230218632A1, “CYCLIC SULFONAMIDE DERIVATIVES AS TRAP1 MODULATORS AND USES THEREOF” (Amathus Therapeutics, Inc., priority 2020, published 2023).

For this experiment, the target named is T1, TRAP1 enzyme (Homo sapiens, UniProt Q12931).
T1 sequence (Q12931 60-704): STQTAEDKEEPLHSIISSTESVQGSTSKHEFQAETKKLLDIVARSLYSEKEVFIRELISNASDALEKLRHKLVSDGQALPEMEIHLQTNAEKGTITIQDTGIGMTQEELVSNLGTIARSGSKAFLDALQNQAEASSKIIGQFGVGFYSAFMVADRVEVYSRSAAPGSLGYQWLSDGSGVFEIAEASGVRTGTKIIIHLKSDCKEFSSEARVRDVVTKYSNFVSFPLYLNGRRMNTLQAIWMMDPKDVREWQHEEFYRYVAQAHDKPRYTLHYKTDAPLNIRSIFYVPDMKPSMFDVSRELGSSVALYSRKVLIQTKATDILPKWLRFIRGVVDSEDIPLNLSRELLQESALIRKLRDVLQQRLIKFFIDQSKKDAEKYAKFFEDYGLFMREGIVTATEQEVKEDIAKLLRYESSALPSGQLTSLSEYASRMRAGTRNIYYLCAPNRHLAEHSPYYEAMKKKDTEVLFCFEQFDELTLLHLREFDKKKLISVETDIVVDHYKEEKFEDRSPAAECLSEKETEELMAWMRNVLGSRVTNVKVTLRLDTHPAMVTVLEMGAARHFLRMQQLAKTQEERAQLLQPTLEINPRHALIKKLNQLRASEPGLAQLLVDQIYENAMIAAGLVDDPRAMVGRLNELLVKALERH
The experiment in a line: ADP Glo assay (ATPase activity of TRAP1). The note with it: for EC50: 150 nM Trap1, 20 µM ATP, concentration for half maximal activation, read-out: ADP GLO DRC: GeoMean EC50; for Emax: read-out: ADP GLO DRC: Mean Emax. It is filed as biochemical. The method, then:
Potency of test compounds to modulate the ATPase activity of TRAP1 enzyme was evaluated using ADP Glo assay. The assay is based on quantification of the ADP generated from ATP in the ATPase reaction. The assay is performed in two steps; first, after the ATPase reaction, an equal volume of ADP-Glo™ Reagent is added to terminate the ATPase reaction and deplete the remaining ATP. Second, the Kinase Detection Reagent is added to simultaneously convert ADP to ATP and allow the newly synthesized ATP to be measured using a luciferase/luciferin reaction.
All the assays were carried out in a 384-well Proxiplate. The buffer used was 25 mM Pipes pH-7.5, 40 mM KCl, 0.05 mM MgCl2, 0.025 % BSA, 0.316 mM EGTA, 0.003% Empigen, 0.01% Igepal. 150 nM Trap1 enzyme was incubated with various concentrations of the test compound (0.79 µM - 100 µM) at 37° C. for 30 mins (except in blank wells). 20 µM ATP was added to each well to start the reaction. The plate was spun for 1 min at 1200 rpm and then incubated at 37° C. for 60 mins. 5 µl of ADP Glo reagent was added to all the wells and spun the plate for 1 min at 1200 rpm and kept it on a shaker at ambient temperature for 60 mins. 10 µl of kinase detection mix was added to all the wells and the plate was read for Luminescence at 495 nm. The amount of ADP released was estimated from ATP/ADP standard curve generated at the same experimental conditions. Emax (Maximal percent activation) and EC50 (concentration for half maximal activation ) were estimated by fitting the dose response data to a sigmoidal curve fitting equation using Graphpad Prism software V. 8.
For orientation: ADP-Glo turns the ADP formed in a reaction into a luminescent signal.

What is called EC50 is the concentration that produces a half-maximal response. For orientation: Emax means the maximal effect, on the per cent scale that the assay sets.

As for `Cc1ncn(C)c1C(=O)Nc1ccc2c(c1)S(=O)(=O)N(c1ccc(C(F)(F)F)cc1)CCO2` [Compound 2343], the EC50 is 30 to 100 µM. Besides, the Emax (maximal percent activation) was in the range of 150 to 200%.
For `Cn1ccc(C(=O)Nc2ccc3c(c2)S(=O)(=O)N(c2ccc(C(F)(F)F)cc2)CCO3)n1` [Compound 2294] the same measures were below 20 µM and 150 to 200%.
`Cc1ncc(C(=O)Nc2ccc3c(c2)S(=O)(=O)N(c2ccc(C(F)(F)F)cc2)CCO3)n1C` [Compound 2355]: the 50% effective concentration (EC50) was below 20 µM. Where the note is “maximal percent activation”, the Emax was above 200%.
Take `CCc1ncccc1C(=O)Nc1ccc2c(c1)S(=O)(=O)N(c1ccc(C(F)(F)F)cc1)CCO2` [Compound 2344]: the EC50 was below 20 µM. Further, the Emax (maximal percent activation) is 150 to 200%.
For `Cn1cc(C(=O)Nc2ccc3c(c2)S(=O)(=O)N(c2ccc(C(F)(F)F)cc2)CCO3)cn1` [Compound 2241] the same measures were 20 to 30 µM and 150 to 200%.
For `Cc1cc(C(=O)Nc2cnc3c(c2)S(=O)(=O)N(c2ccc(C(F)(F)F)cc2)CCO3)cc(C)n1` [Compound 2515] the same measures were 20 to 30 µM and above 200%.
For `O=C(Nc1ccc2c(c1)S(=O)(=O)N(c1ccc(C(F)(F)F)cc1)CCO2)c1cc(=O)cc[nH]1` [Compound 2473] the same measures were 30 to 100 µM and above 200%.
With `Cc1nc(C)c(C(=O)Nc2ccc3c(c2)S(=O)(=O)N(c2ccc(C(F)(F)F)cc2)CCO3)o1` [Compound 1974, N-(1,1-Dioxido-2-(4-(Trifluoromethyl)Phenyl)-3,4-Dihydro-2H-Benzo[b][1,4,5]Oxathiazepin-8-yl)-2,4-Dimethyloxazole-5-Carboxamide], the EC50 is 20 to 30 µM. For the setting “maximal percent activation”, the Emax was in the range of 150 to 200%.
On to `Cc1cc(C(=O)Nc2ccc3c(c2)S(=O)(=O)N(c2ccc(C(F)(F)F)cc2)CCO3)cc(C)n1` [Compound 2510], for which the EC50 lay in the range of 30 to 100 µM. Also, the Emax (maximal percent activation) lay within 150 to 200%.
Consider `Cc1nc(C(=O)Nc2ccc3c(c2)S(=O)(=O)N(c2ccc(C(F)(F)F)cc2)CCO3)co1` [Compound 1992, N-(1,1-Dioxido-2-(4-(trifluoromethyl)Phenyl)-3,4-Dihydro-2H-Benzo[b][1,4,5]Oxathiazepin-8-yl)-2-Methyloxazole-4-Carboxamide], for which the EC50 was in the range of 20 to 30 µM. The Emax (maximal percent activation) is 150 to 200%.
For `Cc1ncoc1C(=O)Nc1ccc2c(c1)S(=O)(=O)N(c1ccc(C(F)(F)F)nc1)CCO2` [Compound 2388] the same measures were 30 to 100 µM and 150 to 200%.
For the compound `O=C(Nc1ccc2c(c1)S(=O)(=O)N(c1ccc(C(F)(F)F)cc1)CCO2)c1cnc[nH]1` [Compound 2075, N-(1,1-Dioxido-2-(4-(Trifluoromethyl) Phenyl)-3,4-Dihydro-2H-Benzo [b] [1,4,5] Oxathiazepin-8-yl)-1H-Imidazole-5-Carboxamide], the EC50 fell in the range of 20 to 30 µM. The Emax (maximal percent activation) lay in the range of 150 to 200%.
On to `Cc1cc(C(=O)Nc2ccc3c(c2)S(=O)(=O)N(c2ccc(C(F)(F)F)cc2)CCO3)cc(C)n1` [Compound 2173], for which the EC50 was below 20 µM. Besides, for the setting “maximal percent activation”, the “ADP GLO DRC: Mean Emax” value is on record as “B (150-200%, inclusive)”.
On to `NCc1cccc(C(=O)Nc2ccc3c(c2)S(=O)(=O)N(c2ccc(C(F)(F)F)cc2)CCO3)n1` [Compound 2513], for which the EC50 lay in the range of 30 to 100 µM. For the setting “maximal percent activation”, the Emax was above 200%.
For `Cc1cnncc1C(=O)Nc1ccc2c(c1)S(=O)(=O)N(c1ccc(C(F)(F)F)cc1)CCO2` [Compound 2275] the same measures were 30 to 100 µM and 150 to 200%.
For `Cc1ccccc1N1CCOc2ccc(NC(=O)c3ncoc3C)cc2S1(=O)=O` [Compound 2096, N-(1,1-dioxido-2-(o-tolyl)-3,4-dihydro-2H-benzo[b][1,4,5]oxathiazepin-8-yl)-5-methyloxazole-4-carboxamide] the same measures were 30 to 100 µM and 150 to 200%.
For `Cc1ncoc1C(=O)Nc1ccc2c(c1)S(=O)(=O)N(c1ccc(C(F)F)cc1)CCO2` [Compound 2443] the same measures were 30 to 100 µM and 150 to 200%.
As for `Cc1ncoc1C(=O)Nc1ccc2c(c1)S(=O)(=O)N(c1ccc(C(F)(F)F)cc1)CCO2` [Compound 1190, N-(1,1-Dioxido-2-(4-(Trifluoromethyl)Phenyl)-3,4-Dihydro-2H-benzo[b][1,4,5]Oxathiazepin-8-yl)-4-Methyloxazole-5-Carboxamide], the EC50 was below 20 µM. The Emax (maximal percent activation) is 150 to 200%.
Turning to `COc1ccncc1C(=O)Nc1ccc2c(c1)S(=O)(=O)N(c1ccc(C(F)(F)F)cc1)CCO2` [Compound 2323], the EC50 lay in the range of 20 to 30 µM. Also, under “maximal percent activation”, the Emax lay in the range of 150 to 200%.
On to `Cn1cccc(C(=O)Nc2cnc3c(c2)S(=O)(=O)N(c2ccc(C(F)(F)F)cc2)CCO3)c1=O` [Compound 2462], for which the EC50 was 20 to 30 µM. Further, under “maximal percent activation”, the Emax is 150 to 200%.
For `Cc1cnn(C)c1C(=O)Nc1ccc2c(c1)S(=O)(=O)N(c1ccc(C(F)(F)F)cc1)CCO2` [Compound 2317] the same measures were below 20 µM and 129 to 149%.
For `Cc1cc(C(=O)Nc2cnc3c(c2)S(=O)(=O)N(c2ccc(C(F)(F)F)cc2)CCO3)n(C)n1` [Compound 2495] the same measures were 20 to 30 µM and above 200%.
For `Cc1ocnc1C(=O)Nc1ccc2c(c1)S(=O)(=O)N(c1ccc(C(F)(F)F)cc1)CCO2` [Compound 1975, N-(1,1-Dioxido-2-(4-(Trifluoromethyl)Phenyl)-3,4-Dihydro-2H-Benzo[b][1,4,5]Oxathiazepin-8-yl)-5-Methyloxazole-4-Carboxamide] the same measures were below 20 µM and 129 to 149%.
`O=C(Nc1ccc2c(c1)S(=O)(=O)N(c1ccc(C(F)(F)F)cc1)CCO2)c1cc(=O)cco1` [Compound 2190]: the EC50 is 30 to 100 µM. Moreover, the Emax (maximal percent activation) was above 200%.
For `Cn1cc(C(=O)Nc2ccc3c(c2)S(=O)(=O)N(c2ccc(C(F)(F)F)cc2)CCO3)c2cccnc21` [Compound 2451], the EC50 is below 20 µM. Also, the Emax (maximal percent activation) is 129 to 149%.
Take `Cc1cnccc1C(=O)Nc1ccc2c(c1)S(=O)(=O)N(c1ccc(C(F)(F)F)cc1)CCO2` [Compound 2199]: the EC50 lay in the range of 20 to 30 µM. Further, the Emax (maximal percent activation) was in the range of 150 to 200%.
For `O=C(Nc1ccc2c(c1)S(=O)(=O)N(c1ccc(C(F)(F)F)cc1)CCO2)C1CCCN1` (stereo not shown) [Compound 2410] the same measures were 30 to 100 µM and 150 to 200%.
In the case of `Cn1c(C(=O)Nc2ccc3c(c2)S(=O)(=O)N(c2ccc(C(F)(F)F)cc2)CCO3)cccc1=O` [Compound 2221], the EC50 lay within 30 to 100 µM. The Emax (maximal percent activation) was 150 to 200%.
With `Cc1ccc(N2CCOc3ccc(NC(=O)c4ncoc4C)cc3S2(=O)=O)cc1` [Compound 2362], the EC50 fell in the range of 30 to 100 µM. The Emax (maximal percent activation) was in the range of 150 to 200%.
In the case of `CC(C)n1cncc1C(=O)Nc1ccc2c(c1)S(=O)(=O)N(c1ccc(C(F)(F)F)cc1)CCO2` [Compound 2439], the EC50 was 20 to 30 µM. The Emax (maximal percent activation) lay within 150 to 200%.
For `Cc1ccncc1C(=O)Nc1ccc2c(c1)S(=O)(=O)N(c1ccc(Cl)cc1)CCO2` [Compound 1209, N-(2-(4-chlorophenyl)-1,1-Dioxido-3,4-Dihydro-2H-Benzo[b][1,4,5] Oxathiazepin-8-yl)-4-Methylnicotinamide] the same measures were 30 to 100 µM and 150 to 200%.
For the compound `Cc1ncncc1C(=O)Nc1ccc2c(c1)S(=O)(=O)N(c1ccc(C(F)(F)F)cc1)CCO2` [Compound 2206], the EC50 was 30 to 100 µM. Further, the Emax (maximal percent activation) lay in the range of 150 to 200%.
Turning to `O=C(Nc1ccc2c(c1)S(=O)(=O)N(c1ccc(C(F)(F)F)cc1)CCO2)c1csc2c1CNCC2` [Compound 2433], the EC50 was in the range of 30 to 100 µM. In addition, where the note is “maximal percent activation”, the Emax is above 200%.
For `O=C(Nc1ccc2c(c1)S(=O)(=O)N(c1ccc(C(F)(F)F)cc1)CCO2)c1cnc[nH]c1=O` [Compound 2334] the same measures were below 20 µM and 150 to 200%.
As to `Cc1nscc1C(=O)Nc1ccc2c(c1)S(=O)(=O)N(c1ccc(C(F)(F)F)cc1)CCO2` [Compound 2227], the EC50 was below 20 µM. Also, the Emax (maximal percent activation) lay in the range of 129 to 149%.
